Test [1] addresses T1, R84G mutant EAG1 channels (Mus musculus, UniProt Q60603, R84G).
T1 construct: expressed in transfected cells; host or cells: Xenopus laevis oocytes injected with cRNA
T1 sequence (Q60603 1-989 R84G): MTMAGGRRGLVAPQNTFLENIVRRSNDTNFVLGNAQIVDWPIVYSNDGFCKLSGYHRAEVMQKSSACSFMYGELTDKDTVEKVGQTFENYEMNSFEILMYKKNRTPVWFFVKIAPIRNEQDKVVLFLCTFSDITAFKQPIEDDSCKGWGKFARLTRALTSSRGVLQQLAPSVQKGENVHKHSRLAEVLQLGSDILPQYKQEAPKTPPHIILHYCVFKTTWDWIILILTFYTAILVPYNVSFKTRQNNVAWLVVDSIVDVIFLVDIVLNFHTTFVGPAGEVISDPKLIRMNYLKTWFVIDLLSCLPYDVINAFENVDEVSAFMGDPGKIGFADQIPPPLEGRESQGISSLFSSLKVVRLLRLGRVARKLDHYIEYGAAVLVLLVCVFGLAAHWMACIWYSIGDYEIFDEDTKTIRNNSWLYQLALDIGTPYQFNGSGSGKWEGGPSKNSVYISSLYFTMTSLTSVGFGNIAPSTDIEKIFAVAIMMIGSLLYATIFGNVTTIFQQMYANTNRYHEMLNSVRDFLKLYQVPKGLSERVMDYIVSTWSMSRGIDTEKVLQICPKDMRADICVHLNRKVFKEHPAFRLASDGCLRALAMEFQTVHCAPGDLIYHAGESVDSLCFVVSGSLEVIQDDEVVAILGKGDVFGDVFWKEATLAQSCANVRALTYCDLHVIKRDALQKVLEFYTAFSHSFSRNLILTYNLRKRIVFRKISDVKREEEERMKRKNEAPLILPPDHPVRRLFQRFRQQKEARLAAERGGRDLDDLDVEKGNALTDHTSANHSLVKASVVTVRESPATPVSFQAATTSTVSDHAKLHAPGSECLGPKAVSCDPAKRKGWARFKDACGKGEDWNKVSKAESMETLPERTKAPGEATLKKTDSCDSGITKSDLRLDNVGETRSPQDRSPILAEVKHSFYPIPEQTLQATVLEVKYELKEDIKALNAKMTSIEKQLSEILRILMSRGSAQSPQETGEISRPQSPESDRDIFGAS
In words: TEVC recording, imipramine inhibition, R84G mutant. Format: cell-based. As to conditions: R84G mutant EAG1 channel, +50 mV. The source says:
(§1) The cDNA encoding wild-type (WT) mouse EAG1 channels in pGH19 vector was kindly provided by G. Robertson (University of Wisconsin-Madison, Madison, WI). The mutant ΔPAS EAG1 channel in pGH19 with the deletion of the PAS domain residues 2 to 130 was generated by Bio Basic Inc and verified by DNA sequencing (Genewiz). Mutant EAG1 channels with single amino acid substitutions were generated by Genewiz and verified by DNA sequencing. cRNA was transcribed using the T7 mMessage mMachine kit (Thermo Fisher Scientific). Defolliculated Xenopus laevis oocytes were purchased from Ecocyte Bioscience or Xenopus1 and injected with the cRNA using a Nanoinject II oocyte injector (Drummond).
(§2) For EAG1 current recordings, oocytes were placed into a handmade chamber containing a bath solution for the current recording. The currents were recorded using a TEVC technique with OC-725C amplifier (Warner Instruments) and pClamp11 software (Molecular Devices). The signals were digitized using Digidata 1550 (Molecular Devices). Patch pipettes were pulled from borosilicate glass and had resistances of 0.7 to 1.5 MΩ. The recording (bath) solution contained 96 mM NaCl, 4 mM KCl, 0.1 mM CaCl2, 1.8 mM MgCl2, and 5 mM HEPES, pH 7.5. The pipette solution contained 3 M KCl. […]

Test [2] has as its target T2, D39G/R84G mutant EAG1 channels (Mus musculus, UniProt Q60603, D39G/R84G).
T2 construct: expressed in transfected cells; host or cells: Xenopus laevis oocytes injected with cRNA
T2 sequence (Q60603 1-989 D39G/R84G): T1 sequence (Q60603 1-989 R84G) with D39G
In words: TEVC recording, imipramine inhibition, D39G/R84G double mutant. The note with it: D39G/R84G mutant EAG1 channel, +50 mV. The format is cell-based.
From the text: as §1, §2

The test system of test [3] is EAG1 channels. The note with it: HEK293, whole-cell configuration; read-out: IC50 for EAG1 currents recorded from HEK293 in the whole-cell configuration; cited from earlier work.

Where a chain is given by its changes, count along the chain named.

Turning to `CN(C)CCCN1c2ccccc2CCc2ccccc21` [imipramine], the IC50 was 92.6 ± 2.7 µM in test [1], 142 ± 28.5 µM in test [2] and ~2 µM in test [3].

The record behind these values is publication PMC10687071 (The Journal of Biological Chemistry, 2023).
